Measured values taken from article PMC5042776 (Molecular Medicine Reports, 2016).
Values after ≈ are worked out from the molar mass of the structure shown. Like-named read-outs stand apart in the source and are kept apart here. Marks after values point to notes of the source that are not given here.

Experiments:
[1] = system: influenza A/PR/8/34 virus (H1N1 subtype); test: microbe, parasite or virus in culture; assay type: cell-based; conditions: for SI (H1N1): CC50/IC50; for IC50: Influenza A virus, H1N1|PR/8, MDCK, 72 h, read-out: IC50 (H1N1)
Cytotoxicity assay = assay type: cell-based, canine; conditions: dog, MDCK cells
[2] = system: A/shenzhen/203/2001 (H3N2 subtype); test: microbe, parasite or virus in culture; assay type: cell-based, influenza A virus; conditions: for SI (H3N2): CC50/IC50; for IC50: Influenza A virus, H3N2, MDCK, 72 h, read-out: IC50 (H3N2)
[3] = system: serum IFN-β, IL-6, TNF-α, IL-1β; assay type: in vivo, ICR mice; conditions: after 5 days of treatment
influenza A virus (IAV) [4] = assay type: in vivo, ICR mice
influenza A virus (IAV) [5] = test: IAV-induced acute lung injury in mice; assay type: in vivo, ICR mice
[6] = system: Toll-like receptor 7 (TLR7) signaling pathway; assay type: in vivo, ICR mice
[7] = 50 mg/kg intragastric once daily 5 days
[8] = 10 mg/kg intragastric once daily 5 days
[9] = 20 mg/kg intragastric once daily 5 days
[10] = 40 mg/kg intragastric once daily 5 days

C=C1CCC[C@]2(C)C[C@]3(O)OC(=O)C(C)=C3C[C@@H]12 [Atractylenolide III, atractylenolide III]
SI (H1N1) [1]: 7.8 | IC50 [1]: 24.4 µg/mL (≈ 98.3 µM) | CC50 at 3 days (Cytotoxicity assay): 191 µg/mL (≈ 770 µM) | SI (H3N2) [2]: 6.7 | IC50 [2]: 28.6 µg/mL (≈ 115 µM)

NC(=O)c1ncn([C@@H]2O[C@H](CO)[C@@H](O)[C@H]2O)n1 [Ribavirin, reference compound]
SI (H1N1) [1]: 8.2 | IC50 [1]: 14.2 µg/mL (≈ 58.1 µM) | IFN-β (serum) ([3]; 50 mg/kg): 23.3 ± 2.79 pg/mL | IL-1β (serum) ([3]; 50 mg/kg): 21.6 ± 3.36 pg/mL | IL-6 (serum) ([3]; 50 mg/kg): 18.5±5.99 ^b pg/ml | TNF-α (serum) ([3]; 50 mg/kg): 13.4±1.54 ^b pg/ml | Life prolong rate (influenza A virus (IAV) [4]; [7]): 40.5% | MDD ± SD (mean day to death) (influenza A virus (IAV) [4]; [7]): 11.1±3.1 ^a day | Survival rate (influenza A virus (IAV) [4]; [7]): 50.0% | Survived/total (influenza A virus (IAV) [4]; [7]): 10/20 | CC50 at 3 days (Cytotoxicity assay): 116 µg/mL (≈ 476 µM) | Inhibitory rate (lung index) (influenza A virus (IAV) [5]; [7]): 61.7% | Lung index (influenza A virus (IAV) [5]; [7]): 12.68±3.30 ^b mg/g | Viral load (lung) (influenza A virus (IAV) [5]; [7]): 1.38±0.56 ^b ×10^6 copies | SI (H3N2) [2]: 10.9 | IC50 [2]: 10.7 µg/mL (≈ 43.8 µM)

C=C1CCC[C@]2(C)Cc3occ(C)c3C[C@@H]12 [Atractylon, atractylon]
SI (H1N1) [1]: 29.4 | SI values relative to those of ribavirin ([1]; H1N1 and H3N2): approximately 3 fold | IC50 [1]: 8.9 µg/mL (≈ 41.1 µM) | IFN-β (serum) ([3]; 10 mg/kg): 25.8 ± 2.87 pg/mL | IL-1β (serum) ([3]; 10 mg/kg): 17.2±1.35 ^b pg/ml | IL-6 (serum) ([3]; 10 mg/kg): 19.5±2.76 ^b pg/ml | TNF-α (serum) ([3]; 10 mg/kg): 16.2±2.27 ^a pg/ml | IFN-β (serum) ([3]; 20 mg/kg): 29.4±3.27 ^a pg/ml | IL-1β (serum) ([3]; 20 mg/kg): 16.5±1.17 ^b pg/ml | IL-6 (serum) ([3]; 20 mg/kg): 17.4±1.11 ^b pg/ml | TNF-α (serum) ([3]; 20 mg/kg): 11.8±1.94 ^b pg/ml | IFN-β (serum) ([3]; 40 mg/kg): 30.8±3.31 ^b pg/ml | IL-1β (serum) ([3]; 40 mg/kg): 13.4±0.74 ^b pg/ml | IL-6 (serum) ([3]; 40 mg/kg): 12.8±1.16 ^b pg/ml | TNF-α (serum) ([3]; 40 mg/kg): 9.20±0.77 ^b pg/ml | mRNA expressions of TLR7, MyD88, TRAF6 and IFN-β in lung tissue ([6]; compared with model control group, P<0.01): obviously upregulated | NF-κB p65 protein expression in lung tissue ([6]; mouse, in vivo): downregulated | Life prolong rate (influenza A virus (IAV) [4]; [8]): 17.7% | MDD ± SD (mean day to death) (influenza A virus (IAV) [4]; [8]): 9.3±3.6 ^a day | Survival rate (influenza A virus (IAV) [4]; [8]): 30.0% | Survived/total (influenza A virus (IAV) [4]; [8]): 6/20 | Life prolong rate (influenza A virus (IAV) [4]; [9]): 41.8% | MDD ± SD (mean day to death) (influenza A virus (IAV) [4]; [9]): 11.2±3.3 ^a day | Survival rate (influenza A virus (IAV) [4]; [9]): 55.0% | Survived/total (influenza A virus (IAV) [4]; [9]): 11/20 | Life prolong rate (influenza A virus (IAV) [4]; [10]): 57.0% | MDD ± SD (mean day to death) (influenza A virus (IAV) [4]; [10]): 12.4±2.6 ^a day | Survival rate (influenza A virus (IAV) [4]; [10]): 70.0% | Survived/total (influenza A virus (IAV) [4]; [10]): 14/20 | CC50 at 3 days (Cytotoxicity assay): 261 µg/mL (≈ 1210 µM) | Inhibitory rate (lung index) (influenza A virus (IAV) [5]; [8]): 27.5% | Lung index (influenza A virus (IAV) [5]; [8]): 17.43±4.16 ^a mg/g | Viral load (lung) (influenza A virus (IAV) [5]; [8]): 4.79±0.84 ^b ×10^6 copies | Inhibitory rate (lung index) (influenza A virus (IAV) [5]; [9]): 58.8% | Lung index (influenza A virus (IAV) [5]; [9]): 13.08±4.54 ^b mg/g | Viral load (lung) (influenza A virus (IAV) [5]; [9]): 2.56±0.72 ^b ×10^6 copies | Inhibitory rate (lung index) (influenza A virus (IAV) [5]; [10]): 74.5% | Lung index (influenza A virus (IAV) [5]; [10]): 10.90±3.76 ^b mg/g | Viral load (lung) (influenza A virus (IAV) [5]; [10]): 0.36±0.15 ^b ×10^6 copies | histological damage of lung (influenza A virus (IAV) [5]; 10–40 mg/kg, H&E staining): improved | SI (H3N2) [2]: 27.8 | IC50 [2]: 9.4 µg/mL (≈ 43.5 µM)
